Reference: US6770597B2, “Benzohydrazide derivatives as herbicides and desiccant compositions containing them” (Ishihara Sangyo Kaisha, Ltd., priority 2002, dated 2004)

How the values were obtained:
Assay type in all cases: in vivo
[1] = system: ivyleaf morningglory (Ipomoea hederacea, IPOHE); test: Greenhouse herbicide screen, pre-emerge application, phytotoxicity rating; settings: PRE emergent, 14 days after application, rating scale 0-100
Excerpt: (§1) A standard greenhouse herbicide activity screening system was used to evaluate the herbicidal efficacy and crop safety of these test compounds. Seven broadleaf weed species including redroot pigweed (Amaranthus retrofiexus, AMARE), velvetleaf (Abutilon theophrasti, ABUTH), sicklepod (Cassia obtusifolia, CASOB), ivyleaf morningglory (Ipomoea hederacea, IPOHE), lambsquarters (Chenopodium album, CHEAL), common ragweed (Ambrosia artemisiifolia L., AMBEL), and cocklebur (Xanthium strumarium, XANST) were used as test species. Four grass weed species including green foxtail (Setaria viridis, SETVI), barnyardgrass (Echinochloa crus-galli, ECHCG), johnsongrass (Sorghum halepense, SORHA), and large crabgrass (Digitaria sanguinalis, DIGSA) were also used. In addition, four crop species, field corn (Zea mays L., var. Dekalb 535, CORN), soybean (Glycine max L., var. Pella 86, SOY), upland rice (Oryza sp., var.Cocodrie, RICE) and wheat (Triticum aestivum L.) were included.
(§2) All plants were grown in 10 cm square plastic pots which were filled with a sandy loam soil mix. For pre-emerge tests, seeds were planted one day prior to application of the test compounds. For post-emerge tests, seeds were planted 8-21 days prior to the test to allow emergence and good foliage development prior to application of the test substances. At the time of the post-emerge application, plants of all species were usually at the 2-3 leaf stage of development.
(§3) All test compounds were dissolved in acetone and applied to the test units in a volume of 187 l/ha. Test materials were applied at rates ranging from 15 g ai/ha to 1000 g ai/ha using a track sprayer equipped with a TJ8001E even flow flat fan spray nozzle. Plants were arranged on a shelf so that the top of the canopy (post-emerge) or top of the soil surface (pre-emerge) was 40-45 cm below the nozzle. Pressurized air was used to force the test solution through the nozzle as it was mechanically advanced (via electrically driven chain drive) over the top of all test plants/pots. This application simulates a typical commercial field herbicide application.
(§4) Pre-emergence tests were top watered immediately after treatment to incorporate the test materials, then routinely top-watered for normal growth. Post-emerge test units were always bottom-watered.
(§5) At 14 days after application of the test materials, phytotoxicity ratings were recorded. A rating scale of 0-100 was used as previously described in Research Methods in Weed Science, 2nd edition, B. Truelove, Ed., Southern Weed Science Society, Auburn University, Auburn, Ala., 1977. Briefly, “0” corresponds to no damage and “100” corresponds to complete death of all plants in the test unit. This scale was used both to determine efficacy against weed species and damage to crop species. Herbicide activity data for various compounds of this invention, which are shown by compound No. in Tables 1-12, are shown in Tables 13 and 14.

[2] = system: sicklepod (Cassia obtusifolia, CASOB); test: as above; settings: PRE emergent, 14 days after application, rating scale 0-100
Excerpt: as §1, §2, §3, §4, §5

[3] = system: large crabgrass (Digitaria sanguinalis, DIGSA); test: as above; settings: PRE emergent, 14 days after application, rating scale 0-100
Excerpt: as §1, §2, §3, §4, §5

[4] = system: barnyardgrass (Echinochloa crus-galli, ECHCG); test: as above; settings: PRE emergent, 14 days after application, rating scale 0-100
Excerpt: as §1, §2, §3, §4, §5

[5] = system: velvetleaf (Abutilon theophrasti, ABUTH); test: as above; settings: PRE emergent, 14 days after application, rating scale 0-100
Excerpt: as §1, §2, §3, §4, §5

[6] = system: johnsongrass (Sorghum halepense, SORHA); test: as above; settings: PRE emergent, 14 days after application, rating scale 0-100
Excerpt: as §1, §2, §3, §4, §5

[7] = system: green foxtail (Setaria viridis, SETVI); test: as above; settings: PRE emergent, 14 days after application, rating scale 0-100
Excerpt: as §1, §2, §3, §4, §5

[8] = system: redroot pigweed (Amaranthus retrofiexus, AMARE); test: as above; settings: PRE emergent, 14 days after application, rating scale 0-100
Excerpt: as §1, §2, §3, §4, §5

[9] = system: cocklebur (Xanthium strumarium, XANST); test: as above; settings: PRE emergent, 14 days after application, rating scale 0-100
Excerpt: as §1, §2, §3, §4, §5

[10] = system: common ragweed (Ambrosia artemisiifolia L., AMBEL); test: as above; settings: PRE emergent, 14 days after application, rating scale 0-100
Excerpt: as §1, §2, §3, §4, §5

[11] = system: lambsquarters (Chenopodium album, CHEAL); test: as above; settings: PRE emergent, 14 days after application, rating scale 0-100
Excerpt: as §1, §2, §3, §4, §5

[12] = system: ivyleaf morningglory (Ipomoea hederacea, IPOHE); test: Greenhouse herbicide screen, post-emerge application, phytotoxicity rating; settings: POST emergent, 14 days after application, scale 0-100
Excerpt: as §1, §2, §3, §4, §5

[13] = system: sicklepod (Cassia obtusifolia, CASOB); test: as above; settings: POST emergent, 14 days after application, scale 0-100
Excerpt: as §1, §2, §3, §4, §5

[14] = system: large crabgrass (Digitaria sanguinalis, DIGSA); test: as above; settings: POST emergent, 14 days after application, scale 0-100
Excerpt: as §1, §2, §3, §4, §5

[15] = system: barnyardgrass (Echinochloa crus-galli, ECHCG); test: as above; settings: POST emergent, 14 days after application, scale 0-100
Excerpt: as §1, §2, §3, §4, §5

[16] = system: velvetleaf (Abutilon theophrasti, ABUTH); test: as above; settings: POST emergent, 14 days after application, scale 0-100
Excerpt: as §1, §2, §3, §4, §5

[17] = system: johnsongrass (Sorghum halepense, SORHA); test: as above; settings: POST emergent, 14 days after application, scale 0-100
Excerpt: as §1, §2, §3, §4, §5

[18] = system: green foxtail (Setaria viridis, SETVI); test: as above; settings: POST emergent, 14 days after application, scale 0-100
Excerpt: as §1, §2, §3, §4, §5

[19] = system: redroot pigweed (Amaranthus retrofiexus, AMARE); test: as above; settings: POST emergent, 14 days after application
Excerpt: as §1, §2, §3, §4, §5

[20] = system: cocklebur (Xanthium strumarium, XANST); test: as above; settings: POST emergent, 14 days after application, scale 0-100
Excerpt: as §1, §2, §3, §4, §5

[21] = system: common ragweed (Ambrosia artemisiifolia L., AMBEL); test: as above; settings: POST emergent, 14 days after application, scale 0-100
Excerpt: as §1, §2, §3, §4, §5

[22] = system: lambsquarters (Chenopodium album, CHEAL); test: as above; settings: POST emergent, 14 days after application, scale 0-100
Excerpt: as §1, §2, §3, §4, §5

[23] = system: field corn (Zea mays L., var. Dekalb 535, CORN); test: Greenhouse herbicide screen, pre-emerge application, crop damage rating; settings: PRE emergent, 14 days after application, rating scale 0-100
Excerpt: as §1, §2, §3, §4, §5

[24] = system: upland rice (Oryza sp., var.Cocodrie, RICE); test: as above; settings: PRE emergent, 14 days after application, rating scale 0-100
Excerpt: as §1, §2, §3, §4, §5

[25] = system: field corn (Zea mays L., var. Dekalb 535, CORN); test: Greenhouse herbicide screen, post-emerge application, crop damage rating; settings: POST emergent, 14 days after application, scale 0-100
Excerpt: as §1, §2, §3, §4, §5

[26] = system: upland rice (Oryza sp., var.Cocodrie, RICE); test: as above; settings: POST emergent, 14 days after application, scale 0-100
Excerpt: as §1, §2, §3, §4, §5

[27] = 63 g ai/ha, scale 0-100 (0 no damage, 100 complete death)

CC(=NN=C(OS(C)(=O)=O)c1cc(-n2c(=O)cc(C(F)(F)F)n(C)c2=O)c(F)cc1Cl)C(C)(C)C [Compound 5-3]
phytotoxicity rating IPOHE ([1]; 63 g ai/ha): 80
phytotoxicity rating CASOB ([2]; 63 g ai/ha): 70
phytotoxicity rating DIGSA ([3]; 63 g ai/ha): 60
phytotoxicity rating ECHCG ([4]; 63 g ai/ha): 30
phytotoxicity rating ABUTH ([5]; 63 g ai/ha): 100
phytotoxicity rating SORHA ([6]; 63 g ai/ha): 90
phytotoxicity rating SETVI ([7]; 63 g ai/ha): 55
phytotoxicity rating AMARE ([8]; 63 g ai/ha): 100
phytotoxicity rating XANST ([9]; 63 g ai/ha): 30
phytotoxicity rating AMBEL ([10]; 63 g ai/ha): 60
phytotoxicity rating CHEAL ([11]; 63 g ai/ha): 100
phytotoxicity rating IPOHE ([12]; 63 g ai/ha): 100
phytotoxicity rating CASOB ([13]; 63 g ai/ha): 50
phytotoxicity rating DIGSA ([14]; 63 g ai/ha): 60
phytotoxicity rating ECHCO ([15]; 63 g ai/ha): 100
phytotoxicity rating ABUTH ([16]; 63 g ai/ha): 95
phytotoxicity rating SORHA ([17]; 63 g ai/ha): 30
phytotoxicity rating SETVI ([18]; 63 g ai/ha): 60
phytotoxicity rating AMARE [19, 27]: 99
phytotoxicity rating XANST ([20]; 63 g ai/ha): 70
phytotoxicity rating AMBEL ([21]; 63 g ai/ha): 90
phytotoxicity rating CHEAL ([22]; 63 g ai/ha): 80
crop damage rating CORN ([23]; 63 g ai/ha): 50
crop damage rating RICE ([24]; 63 g ai/ha): 30
crop damage rating CORN ([25]; 63 g ai/ha): 60
crop damage rating RICE ([26]; 63 g ai/ha): 10

Cn1c(C(F)(F)F)cc(=O)n(-c2cc(C(=O)NN=C(c3ccccc3)c3ccccc3)c(Cl)cc2F)c1=O [Compound 6-15]
phytotoxicity rating IPOHE ([1]; 63 g ai/ha): 15
phytotoxicity rating IPOHE ([1]; 250 g ai/ha): 95
phytotoxicity rating CASOB ([2]; 63 g ai/ha): 65
phytotoxicity rating CASOB ([2]; 250 g ai/ha): 99
phytotoxicity rating DIGSA ([3]; 63 g ai/ha): 85
phytotoxicity rating DIGSA ([3]; 250 g ai/ha): 99
phytotoxicity rating ECHCG ([4]; 63 g ai/ha): 0
phytotoxicity rating ECHCG ([4]; 250 g ai/ha): 35
phytotoxicity rating ABUTH ([5]; 63 g ai/ha): 100
phytotoxicity rating ABUTH ([5]; 250 g ai/ha): 100
phytotoxicity rating SORHA ([6]; 63 g ai/ha): 40
phytotoxicity rating SORHA ([6]; 250 g ai/ha): 95
phytotoxicity rating SETVI ([7]; 63 g ai/ha): 75
phytotoxicity rating SETVI ([7]; 250 g ai/ha): 98
phytotoxicity rating AMARE ([8]; 63 g ai/ha): 100
phytotoxicity rating AMARE ([8]; 250 g ai/ha): 100
phytotoxicity rating XANST ([9]; 63 g ai/ha): 30
phytotoxicity rating XANST ([9]; 250 g ai/ha): 60
phytotoxicity rating AMBEL ([10]; 63 g ai/ha): 70
phytotoxicity rating AMBEL ([10]; 250 g ai/ha): 95
phytotoxicity rating CHEAL ([11]; 63 g ai/ha): 100
phytotoxicity rating CHEAL ([11]; 250 g ai/ha): 100
phytotoxicity rating IPOHE ([12]; 63 g ai/ha): 75
phytotoxicity rating IPOHE ([12]; 250 g ai/ha): 100
phytotoxicity rating CASOB ([13]; 63 g ai/ha): 70
phytotoxicity rating CASOB ([13]; 250 g ai/ha): 75
phytotoxicity rating DIGSA ([14]; 63 g ai/ha): 20
phytotoxicity rating DIGSA ([14]; 250 g ai/ha): 50
phytotoxicity rating ECHCO ([15]; 63 g ai/ha): 50
phytotoxicity rating ECHCO ([15]; 250 g ai/ha): 65
phytotoxicity rating ABUTH ([16]; 63 g ai/ha): 80
phytotoxicity rating ABUTH ([16]; 250 g ai/ha): 98
phytotoxicity rating SORHA ([17]; 63 g ai/ha): 0
phytotoxicity rating SORHA ([17]; 250 g ai/ha): 15
phytotoxicity rating SETVI ([18]; 63 g ai/ha): 55
phytotoxicity rating SETVI ([18]; 250 g ai/ha): 60
phytotoxicity rating AMARE [19, 27]: 90
phytotoxicity rating AMARE ([19]; 250 g ai/ha, scale 0-100): 90
phytotoxicity rating XANST ([20]; 63 g ai/ha): 70
phytotoxicity rating XANST ([20]; 250 g ai/ha): 75
phytotoxicity rating AMBEL ([21]; 63 g ai/ha): 80
phytotoxicity rating AMBEL ([21]; 250 g ai/ha): 80
phytotoxicity rating CHEAL ([22]; 63 g ai/ha): 90
phytotoxicity rating CHEAL ([22]; 250 g ai/ha): 90
crop damage rating CORN ([23]; 63 g ai/ha): 0
crop damage rating CORN ([23]; 250 g ai/ha): 0
crop damage rating RICE ([24]; 63 g ai/ha): 0
crop damage rating RICE ([24]; 250 g ai/ha): 0
crop damage rating CORN ([25]; 63 g ai/ha): 20
crop damage rating CORN ([25]; 250 g ai/ha): 25
crop damage rating RICE ([26]; 63 g ai/ha): 0
crop damage rating RICE ([26]; 250 g ai/ha): 0
